Experimental data published in patent publication US8716242B2, “β-hairpin peptidomimetics” (priority 2009, dated 2014).
Like-named read-outs stand apart in the source and are kept apart here. Numbered stars: 1 amine (or outer) side, 2 acyl side, 3 side chain; on linkers, the order of the positions; unused ones are H or OH. Bridge positions count the residues as written; N and C are the ends. Square brackets hold non-standard residues; d marks the D form. Side chains are listed from the residue outwards. Peptide text beside a SMILES is read from it. * marks the point of attachment. Cholyl = C[C@H](CCC(=O)*)[C@H]1CC[C@H]2[C@@H]3[C@H](O)C[C@@H]4C[C@H](O)CC[C@]4(C)[C@H]3C[C@H](O)[C@]12C; Gly(Dodecyl) = CCCCCCCCCCCC[C@H](N)C(=O)O; γGlu = O=C(O)[C@H](CCC(=O)[*:2])N[*:1]; Lauroyl = CCCCCCCCCCCC(=O)*; Decanoyl = CCCCCCCCCC(=O)*; Dab = NCC[C@H](N)C(=O)O

Assays:
human CXCR4 = target: T1, human CXCR4 (Homo sapiens, UniProt P61073); experiment: Ca2+-assay: CXCR4-antagonizing activity (SDF-1 induced calcium mobilization); format: cell-based
T1 construct: expressed in transfected cells; host or cells: mouse pre-B cell line 300-19
From the text: 2.3. Ca^2+-Assay: CXCR4-Antagonizing Activity of the Peptides
Increases in intracellular calcium were monitored using a Flexstation 384 (Molecular Devices, Sunnyvale, Calif.) to assay the peptides for CXCR4 antagonism in a mouse pre-B cell line 300-19 stably transfected with human CXCR4 (E. Oberlin, A. Amara, F. Bachelerie, C. Bessia, J.-L. Virelizier, F. Arenzana-Seisdedos, O, Schwartz, J.-M. Heard, I. Clark-Lewis, D. F. Legler, M. Loetscher, M. Baggiolini, B. Moser, Nature 1996, 382, 833-835; M. Loetscher, T. Geiser, T. O'Reilly, R. Zwalen, M. Baggiolini, B. Moser, J. Biol. Chem. 1994, 269, 232-237; M. D'Apuuo, A. Rolink, M. Loetscher, J. A. Hoxie, I. Clark-Lewis, F. Melchors, M. Baggiolini, B. Moser, Eur. J. Immunol. 1997, 27, 1788-1793). The cells were batch loaded with the Calcium 4 Assay kit (Molecular Devices) in assay buffer (Hanks Balanced salt solution [HBSS], 20 mM HEPES, pH 7.4, 0.1% BSA) for 1 h at room temperature and labeled cells were dispensed into black well assays plates (Costar No. 3603). Calcium mobilization induced by stromal-derived factor-1 (SDF-1) was measured in the Flexstation 384 (excitation: 485 nm; emission: 525 nm) for 90 seconds. Antagonist activity of peptides was determined by spiking the cells with compounds prior to SDF-1 addition. Dose response curves (compound concentration versus % maximum response for SDF-1) were determined for each antagonist and IC50 values were calculated by fitting the data to a four parameter logistic equation using SoftmaxPro 4.8 (Molecular Devices).

[1] = Cytotoxicity, MTT reduction assay, HELA cells; format: cell-based; conditions: human, HELA cells (Acc57), 12.5-50 μM
Description: (§1) Mouse pre-B cells were cultured in RPMI1640 plus 5% FBS, antibiotic/antimycotic, non essential amino acid, 50 μM β-mercaptoethanol and 1 mM natrium pyruvate. HELA cells were maintained in RPMI1640 plus 10% FBS, pen/strept and 2 mM L-glutamine. Cos-7 cells were grown in DMEM medium with […] glucose supplemented with 10% FCS, pen/strept and 2 mM L-glutamine. All cell lines were grown at 37° C. at 5% CO2. Cell media, media supplements, PBS-buffer, HEPES, antibiotic/antimycotic, pen/strept, non essential amino acid, L-glutamine, β-mercaptoethanol and sera were purchased from Gibco (Pailsey, UK). All fine chemicals were supplied by Merck (Darmstadt, Germany).
(§2) The cytotoxicity of the peptides to HELA cells (Acc57) and COS-7 cells (CRL-1651) was determined using the MTT reduction assay (T. Mossman, J. Immunol. Meth. 1983, 65, 55-63; M. V. Berridge, A. S. Tan, Arch. Biochem. Biophys. 1993, 303, 474-482). Briefly, the method was as follows: 4000 HELA cells/well and 3400 COS-7 cells/well were seeded and grown in 96-well microtiter plates for 24 h at 37° C. at 5% CO2. Thereafter, time zero (Tz) was determined by MTT reduction (see below). The supernatant of the remaining wells was discarded, and fresh medium and compounds in serial dilutions (12.5, 25 and 50 μM, triplicates) were pipetted into the wells. After incubation of the cells for 48 h at 37° C. at 5% CO2 the supernatant was discarded again and 100 μL MTT reagent (0.5 mg/mL in RPMI1640 and DMEM, respectively)/well was added. Following incubation at 37° C. for 2-4 h the media were aspirated and the cells were spiked (100 μL isopropanol/well). The absorbance of the solubilized formazan was measured at 595 nm (OD595peptide). For each concentration averages were calculated from triplicates. The percentage of growth was calculated as follows: (OD595peptide-OD595Tz-OD595Empty well)/(OD595Tz-OD595Empty well)×100%. The GI50 (Growth Inhibition) concentrations were calculated for each peptide by using a trend line function for the concentrations (50, 25, 12.5 and 0 μM), the corresponding percentages and the value 50, (=TREND (C50: C0, %50:%0,50).

[2] = Cytotoxicity, MTT reduction assay, COS-7 cells; format: cell-based; conditions: African green monkey, COS-7 cells (CRL-1651), 12.5-50 μM
Description: as §1, §2

[3] = test system: human red blood cells (hRBC); experiment: Hemolysis of human red blood cells; format: cell-based; conditions: 20% hRBC, 1 h, 37° C.
Description: The peptides were tested for their hemolytic activity against human red blood cells (hRBC). Fresh hRBC were washed three times with phosphate buffered saline (PBS) and centrifuged for 10 min at 2000×g. Compounds (100 μM) were incubated with 20% hRBC (v/v) for 1 h at 37° C. and shaking at 300 rpm. The final erythrocyte concentration was approximately 0.9×10^9 cells/mL. A value of 0% and 100% cell lyses, respectively, was determined by incubation of hRBC in the presence of PBS containing 0.001% acetic acid and 2.5% Triton X-100 in H2O, respectively. The samples were centrifuged, the supernatants were 8-fold diluted in PBS buffer and the optical densities (OD) were measured at 540 nm. The 100% lyses value (OD540H2O) gave an OD540 of approximately 0.5-1.0.
(§3) Percent hemolysis was calculated as follows: (OD540peptide/OD540H2O)×100%. 2.6. Plasma Stability

[4] = Plasma stability in human plasma; format: in vitro ADME
Description: as §3
(§4) The stability of the peptides in human and mouse plasma was determined by applying the following method: 346.5 μL/deep well of freshly thawed human plasma (Basler Blutspendedienst) and mouse plasma (Harlan Sera-Lab, UK), respectively, were spiked with 3.5 μL/well of compound dissolved in DMSO/H2O ([…] [v/v], 1 mM, triplicate) and incubated at 37° C. At t=0, 15, 30, 60, 120, 240 and 1440 min aliquots of 50 μL were transferred to filtration plate wells containing 150 μL/well of 2% formic acid in acetonitrile. Following shaking for 2 min the occurred suspensions were filtrated by vacuum and 50 μL of each filtrate was mixed with 100 μL of 1% formic acid in H2O. After transfer to a propylene microtiter plate, the filtrates were analyzed by LC/MS as follows: Column: Waters, XBridge C18, mobile phases: (A) water+0.1% formic acid and (B) acetonitrile/water, 95/5 (v/v)+0.1% formic acid, gradient: 5%-100% (B) in 2 minutes, electrospray ionization, MRM detection (triple quadrupole). The peak areas were determined and triplicate values are averaged. The stability is expressed in percent of the initial value at t=0. (tx/t0×100). By using the TREND function of EXCEL (Microsoft Office 2003) T1/2 were determined.

[5] = Plasma stability in mouse plasma; format: in vitro ADME; conditions: for half-life at 10 μM / mouse pl. T1/2: up to 1440 min; for half-life at 10 μM: read-out: mouse pl. T1/2
Description: as §3, §4

[6] = mouse pre-B cell line 300-19 transfected with human CXCR4, SDF-1 induced Ca2+ mobilization, read-out: IC50% [nM] ± SD, CXCR4 receptor
[7] = human plasma, 37° C., 1440 min, read-out: human pl. cpd left at 1440 min
[8] = human plasma, 37° C., up to 1440 min
[9] = mouse plasma, 37° C., 1440 min, read-out: mouse pl. cpd left at 1440 min

T1 sequence (P61073 whole entry): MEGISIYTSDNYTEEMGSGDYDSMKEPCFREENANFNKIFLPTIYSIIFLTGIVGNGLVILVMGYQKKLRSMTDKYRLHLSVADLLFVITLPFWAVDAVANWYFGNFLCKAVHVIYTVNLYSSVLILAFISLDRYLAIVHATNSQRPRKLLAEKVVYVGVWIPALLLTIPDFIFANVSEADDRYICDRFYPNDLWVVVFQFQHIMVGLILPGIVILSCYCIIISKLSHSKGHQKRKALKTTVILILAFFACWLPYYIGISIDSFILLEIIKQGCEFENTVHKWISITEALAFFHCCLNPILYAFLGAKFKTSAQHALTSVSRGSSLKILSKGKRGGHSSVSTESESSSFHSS

Row | Structure (SMILES) | IC50 (human CXCR4; [6]) [nM] | GI50 at 48 h [1] [µM] | GI50 at 48 h [2] [µM] | Hemolysis at 100 μM [3] [%] | half-life at 10 μM ([4]; human plasma, 37° C., up to 1440 min, read-out: human pl. T1/2) [min] | remaining at 24 h, 10 μM ([4]; human, plasma) [%] | half-life at 10 μM ([5]; mouse plasma, 37° C.) [min] | remaining at 24 h, 10 μM ([5]; mouse, plasma) [%] | remaining at 24 h, 10 μM [4, 7] [%] | human pl. T1/2 [4, 8] [min] | remaining at 24 h, 10 μM [5, 9] [%] | IC50 (human CXCR4) [nM] | mouse pl. T1/2 ([5]; mouse plasma, 37° C.) [min]
1 | CCCCCCCCCC(=O)NCCCC[C@@H]1NC(=O)[C@H](Cc2ccc(O)cc2)NC(=O)[C@@H]2CSSC[C@H](NC(=O)[C@H]([C@@H](C)O)NC(=O)[C@H](Cc3c[nH]cn3)NC(=O)[C@H](Cc3ccc(O)cc3)NC(=O)[C@@H]3CCCN3C(=O)[C@@H](Cc3ccc(O)cc3)NC(=O)[C@H](CCCCN)NC1=O)C(=O)N[C@@H](CCCNC(=N)N)C(=O)N[C@@H](C)C(=O)N1CCC[C@@H]1C(=O)N[C@@H](CCN)C(=O)N[C@@H](CCCNC(=N)N)C(=O)N[C@@H](Cc1ccc(O)cc1)C(=O)N2 [Ex. 16] (cyclo(YHTCRA[dP][Dab]RYCYK(Decanoyl)K[dY]P); disulfide 4-11) | 18.2 ± 11 | > 50 | > 50 | 0.5 | 1190 | 48 | 619 | 35 |  |  |  |  | 
2 | CCCCCCCCCCCC[C@@H]1NC(=O)[C@H](Cc2c[nH]cn2)NC(=O)[C@H](Cc2ccc(O)cc2)NC(=O)[C@@H]2CCCN2C(=O)[C@H]2CCCN2C(=O)[C@H](CCCCN)NC(=O)[C@H](CCC(N)=O)NC(=O)[C@H](Cc2ccc(O)cc2)NC(=O)[C@@H]2CSSC[C@H](NC1=O)C(=O)N[C@@H](CCCNC(=N)N)C(=O)N[C@@H](C)C(=O)N1CCC[C@@H]1C(=O)N[C@@H](CCN)C(=O)N[C@@H](CCCNC(=N)N)C(=O)N[C@@H](Cc1ccc(O)cc1)C(=O)N2 [Ex. 2] (cyclo(YH[Gly(Dodecyl)]CRA[dP][Dab]RYCYQK[dP]P); disulfide 4-11) | 55.8 ± 6 | > 13 | > 32 | 1.7 |  |  | 1400 |  | 96 | 1440 | 62 |  | 
3 | C[C@H](CCC(=O)NCC(=O)NCCCC[C@@H]1NC(=O)[C@H](CCC(N)=O)NC(=O)[C@H](Cc2ccc(O)cc2)NC(=O)[C@@H]2CSSC[C@H](NC(=O)[C@H]([C@@H](C)O)NC(=O)[C@H](Cc3c[nH]cn3)NC(=O)[C@H](Cc3ccc(O)cc3)NC(=O)[C@@H]3CCCN3C(=O)[C@H]3CCCN3C1=O)C(=O)N[C@@H](CCCNC(=N)N)C(=O)NCC(=O)N1CCC[C@@H]1C(=O)N[C@@H](CCN)C(=O)N[C@@H](CCCNC(=N)N)C(=O)N[C@@H](Cc1ccc(O)cc1)C(=O)N2)[C@H]1CC[C@H]2[C@@H]3[C@H](O)C[C@@H]4C[C@H](O)CC[C@]4(C)[C@H]3C[C@H](O)[C@]12C [Ex. 34] (cyclo(YHTCRG[dP][Dab]RYCYQK([Gly-Cholyl])[dP]P); disulfide 4-11) |  | > 45 | > 50 | 0.6 |  |  |  |  | 100 | 1440 | 87 | 7.2 ± 0.3 | 1440
4 | CCCCCCCCCCCC(=O)N[C@@H](CCC(=O)NCCCC[C@@H]1NC(=O)[C@H](Cc2ccc(O)cc2)NC(=O)[C@@H]2CSSC[C@H](NC(=O)[C@H](C)NC(=O)[C@H](Cc3c[nH]cn3)NC(=O)[C@H](Cc3ccc(O)cc3)NC(=O)[C@@H]3CCCN3C(=O)[C@H]3CCCN3C(=O)[C@H](CCCCN)NC1=O)C(=O)N[C@@H](CCCNC(=N)N)C(=O)NCC(=O)N1CCC[C@@H]1C(=O)N[C@@H](CCN)C(=O)N[C@@H](CCCNC(=N)N)C(=O)N[C@@H](Cc1ccc(O)cc1)C(=O)N2)C(=O)O [compound 27] (cyclo(YHACRG[dP][Dab]RYCYK([γGlu-Lauroyl])K[dP]P); disulfide 4-11) | 2.6 ± 0.7 | > 48 | > 50 | 1.6 |  |  |  |  | 75 | 1440 | 22 |  | 1440
5 | CCCCCCCCCCCC(=O)NCC[C@@H]1NC(=O)[C@H](Cc2ccc(O)cc2)NC(=O)[C@@H]2CCCN2C(=O)[C@H]2CCCN2C(=O)[C@H](CCCCN)NC(=O)[C@H](CCC(N)=O)NC(=O)[C@H](Cc2ccc(O)cc2)NC(=O)[C@@H]2CSSC[C@H](NC(=O)[C@H](C)NC1=O)C(=O)N[C@@H](CCCNC(=N)N)C(=O)N[C@@H](C)C(=O)N1CCC[C@@H]1C(=O)N[C@@H](CCN)C(=O)N[C@@H](CCCNC(=N)N)C(=O)N[C@@H](Cc1ccc(O)cc1)C(=O)N2 [Ex. 1] (cyclo(Y[Dab](Lauroyl)ACRA[dP][Dab]RYCYQK[dP]P); disulfide 4-11) | 94 ± 2.1 | > 28 | > 50 | 2.6 |  |  |  |  | 87 | 1440 | 77 |  | 1440
